The values that follow come from ChEMBL document CHEMBL1132184, “Two-stage method for protein-ligand docking” (J Med Chem, 1999).

pKi: −log10 of the molar value.

The test concerns the target Prothrombin (Homo sapiens, UniProt P00734). Description: Binding affinity against thrombin.

As for `N=C(N)C[C@H]1CC[C@@H](NC(=O)[C@@H]2CCCN2C(=O)[C@@H](Cc2ccccc2)NS(=O)(=O)Cc2ccccc2)CC1`, the negative-log Ki (pKi) is 9.57.
